Measurements taken from PubChem BioAssay (NCI).
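Compound exposure: 48 hours, 5 concentrations, 96-well plates. GI50 marks 50% less growth. Definition used: TGI = concentration required for complete inhibition of growth.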

Experiments:
Assay in all cases: NCI tumour cell line growth inhibition, 48 h
786-0 renal = system: 786-0 renal
A498 renal = system: A498 renal
A549 NSCLC = system: A549 NSCLC
ACHN renal = system: ACHN renal
BT-549 breast = system: BT-549 breast
CAKI-1 renal = system: CAKI-1 renal
CCRF-CEM leukemia = system: CCRF-CEM leukemia
COLO 205 colon = system: COLO 205 colon
DU-145 prostate = system: DU-145 prostate
EKVX NSCLC = system: EKVX NSCLC
HCC-2998 colon = system: HCC-2998 colon
HCT-116 colon = system: HCT-116 colon
HCT-15 colon = system: HCT-15 colon
HL-60(TB) leukemia = system: HL-60(TB) leukemia
HOP-62 NSCLC = system: HOP-62 NSCLC
HOP-92 NSCLC = system: HOP-92 NSCLC
HS 578T breast = system: HS 578T breast
HT29 colon = system: HT29 colon
IGROV1 ovarian = system: IGROV1 ovarian
K-562 leukemia = system: K-562 leukemia
KM12 colon = system: KM12 colon
LOX IMVI melanoma = system: LOX IMVI melanoma
M14 melanoma = system: M14 melanoma
MALME-3M melanoma = system: MALME-3M melanoma
MCF7 breast = system: MCF7 breast
MDA-MB-231 breast = system: MDA-MB-231 breast
MDA-MB-435 = system: MDA-MB-435
MOLT-4 leukemia = system: MOLT-4 leukemia
NCI-H226 lung = system: NCI-H226 lung
NCI-H460 lung = system: NCI-H460 lung
NCI-H522 lung = system: NCI-H522 lung
NCI/ADR-RES ovarian = system: NCI/ADR-RES ovarian
OVCAR-3 ovarian = system: OVCAR-3 ovarian
OVCAR-4 ovarian = system: OVCAR-4 ovarian
OVCAR-5 ovarian = system: OVCAR-5 ovarian
OVCAR-8 ovarian = system: OVCAR-8 ovarian
PC-3 prostate = system: PC-3 prostate
RPMI-8226 leukemia = system: RPMI-8226 leukemia
RXF 393 renal = system: RXF 393 renal
SF-268 CNS = system: SF-268 CNS
SF-295 CNS = system: SF-295 CNS
SF-539 CNS = system: SF-539 CNS
SK-MEL-2 melanoma = system: SK-MEL-2 melanoma
SK-MEL-28 melanoma = system: SK-MEL-28 melanoma
SK-MEL-5 melanoma = system: SK-MEL-5 melanoma
SK-OV-3 ovarian = system: SK-OV-3 ovarian
SN12C renal = system: SN12C renal
SNB-19 CNS = system: SNB-19 CNS
SNB-75 CNS = system: SNB-75 CNS
SR leukemia = system: SR leukemia
SW-620 colon = system: SW-620 colon
T-47D breast = system: T-47D breast
TK-10 renal = system: TK-10 renal
U251 CNS = system: U251 CNS
UACC-257 melanoma = system: UACC-257 melanoma
UACC-62 melanoma = system: UACC-62 melanoma
UO-31 renal = system: UO-31 renal

COCc1cc(C(=O)Nc2cc([C@H]3CC[C@@H](OC(=O)NC(C)C)C3)[nH]n2)n(C)n1
GI50 (786-0 renal): 11.2 µM
TGI (786-0 renal): > 100 µM
GI50 (A498 renal): 11.4 µM
TGI (A498 renal): 34.5 µM
GI50 (A549 NSCLC): 13 µM
TGI (A549 NSCLC): > 100 µM
GI50 (ACHN renal): 11.1 µM
TGI (ACHN renal): > 100 µM
GI50 (BT-549 breast): 9.27 µM
TGI (BT-549 breast): 41.1 µM
GI50 (CAKI-1 renal): 3.64 µM
TGI (CAKI-1 renal): 95.3 µM
GI50 (CCRF-CEM leukemia): 4.78 µM
TGI (CCRF-CEM leukemia): 70.2 µM
GI50 (COLO 205 colon): 3.15 µM
TGI (COLO 205 colon): 16.3 µM
GI50 (DU-145 prostate): 5.13 µM
TGI (DU-145 prostate): > 100 µM
GI50 (EKVX NSCLC): 19.1 µM
TGI (EKVX NSCLC): 85.8 µM
GI50 (HCC-2998 colon): 5.39 µM
TGI (HCC-2998 colon): 48.2 µM
GI50 (HCT-116 colon): 2.61 µM
TGI (HCT-116 colon): 43 µM
GI50 (HCT-15 colon): 22.8 µM
TGI (HCT-15 colon): > 100 µM
GI50 (HL-60(TB) leukemia): 2.55 µM
TGI (HL-60(TB) leukemia): 11.4 µM
GI50 (HOP-62 NSCLC): 8.6 µM
TGI (HOP-62 NSCLC): 88.4 µM
GI50 (HOP-92 NSCLC): 8.03 µM
TGI (HOP-92 NSCLC): 36.6 µM
GI50 (HS 578T breast): 11.7 µM
TGI (HS 578T breast): 85.3 µM
GI50 (HT29 colon): 10.3 µM
TGI (HT29 colon): 89 µM
GI50 (IGROV1 ovarian): 4.74 µM
TGI (IGROV1 ovarian): > 100 µM
GI50 (K-562 leukemia): 12.1 µM
TGI (K-562 leukemia): > 100 µM
GI50 (KM12 colon): 1.27 µM
TGI (KM12 colon): 23.1 µM
GI50 (LOX IMVI melanoma): 4.15 µM
TGI (LOX IMVI melanoma): 75.5 µM
GI50 (M14 melanoma): 12.2 µM
TGI (M14 melanoma): 40.5 µM
GI50 (MALME-3M melanoma): 24.2 µM
TGI (MALME-3M melanoma): 74.1 µM
GI50 (MCF7 breast): 2.53 µM
TGI (MCF7 breast): > 100 µM
GI50 (MDA-MB-231 breast): 16.6 µM
TGI (MDA-MB-231 breast): 91.1 µM
GI50 (MDA-MB-435): 16.1 µM
TGI (MDA-MB-435): > 100 µM
GI50 (MOLT-4 leukemia): 5.34 µM
TGI (MOLT-4 leukemia): 68.1 µM
GI50 (NCI-H226 lung): 5.63 µM
TGI (NCI-H226 lung): 76.5 µM
GI50 (NCI-H460 lung): 5.64 µM
TGI (NCI-H460 lung): > 100 µM
GI50 (NCI-H522 lung): 16.2 µM
TGI (NCI-H522 lung): 47.2 µM
GI50 (NCI/ADR-RES ovarian): > 100 µM
TGI (NCI/ADR-RES ovarian): > 100 µM
GI50 (OVCAR-3 ovarian): 2.55 µM
TGI (OVCAR-3 ovarian): 30.6 µM
GI50 (OVCAR-4 ovarian): 4.89 µM
TGI (OVCAR-4 ovarian): 77.2 µM
GI50 (OVCAR-5 ovarian): 7.99 µM
TGI (OVCAR-5 ovarian): > 100 µM
GI50 (OVCAR-8 ovarian): 10.9 µM
TGI (OVCAR-8 ovarian): > 100 µM
GI50 (PC-3 prostate): 10.3 µM
TGI (PC-3 prostate): 73.6 µM
GI50 (RPMI-8226 leukemia): 14.2 µM
TGI (RPMI-8226 leukemia): 47 µM
GI50 (RXF 393 renal): 2.93 µM
TGI (RXF 393 renal): 9.11 µM
GI50 (SF-268 CNS): 12.1 µM
TGI (SF-268 CNS): 50.5 µM
GI50 (SF-295 CNS): 13 µM
TGI (SF-295 CNS): > 100 µM
GI50 (SF-539 CNS): 6.34 µM
TGI (SF-539 CNS): 43.7 µM
GI50 (SK-MEL-2 melanoma): 10.6 µM
TGI (SK-MEL-2 melanoma): 27.2 µM
GI50 (SK-MEL-28 melanoma): 14.9 µM
TGI (SK-MEL-28 melanoma): 85 µM
GI50 (SK-MEL-5 melanoma): 15.6 µM
TGI (SK-MEL-5 melanoma): 39.3 µM
GI50 (SK-OV-3 ovarian): 28.6 µM
TGI (SK-OV-3 ovarian): 96.2 µM
GI50 (SN12C renal): 9.58 µM
TGI (SN12C renal): > 100 µM
GI50 (SNB-19 CNS): 12.7 µM
TGI (SNB-19 CNS): > 100 µM
GI50 (SNB-75 CNS): 3.86 µM
TGI (SNB-75 CNS): 22.4 µM
GI50 (SR leukemia): 1.32 µM
TGI (SR leukemia): 9.9 µM
GI50 (SW-620 colon): 4.32 µM
TGI (SW-620 colon): 74.7 µM
GI50 (T-47D breast): 9.71 µM
TGI (T-47D breast): 89 µM
GI50 (TK-10 renal): 19.9 µM
TGI (TK-10 renal): > 100 µM
GI50 (U251 CNS): 8.94 µM
TGI (U251 CNS): > 100 µM
GI50 (UACC-257 melanoma): 25.9 µM
TGI (UACC-257 melanoma): > 100 µM
GI50 (UACC-62 melanoma): 11.5 µM
TGI (UACC-62 melanoma): 36.4 µM
GI50 (UO-31 renal): 16 µM
TGI (UO-31 renal): 58.6 µM
